Laboratory results published in article PMC12140300, “Development of Carbon‐11 Labeled Pyrimidine Derivatives as Novel Positron Emission Tomography (PET) Agents Enabling Brain Sigma‐1 Receptor Imaging” (Advanced Science, 2025).

System: σ1R
Assay: NHP PET/MR imaging with kinetic modelling, baseline and self-blocking
Assay type: in vivo
Conditions: for VT, One tissue compartment model [1TCM] / VT, Two tissue compartment model [2TCM] / VT, Logan graphical method [T* = 40 min]: male NHP brain
From the text: Next, we conducted PET/MR imaging studies using [^11C]CNY‐01 in non‐human primates (NHP) to evaluate its safety and translational potential in large animals further. A 90‐minute dynamic PET scan with [^11C]CNY‐01 focusing on the head of a male rhesus monkey. We performed a full kinetic analysis with one‐ and two‐tissue compartment models (1TCM and 2TCM), as well as logan graphical analysis (LGA), using metabolite‐corrected arterial input function (AIF), similar to previous studies,^[ [44], [45] ^] to determine which model best suit kinetics of [^11C]CNY‐01. In most brain regions, 2TCM provided a better fit than 1TCM, as indicated by the Akaike information criterion (AIC) and model selection criterion (MSC) (Table 1). […] To test whether non‐parametric graphical approaches can be used for [^11C]CNY‐01, we performed LGA with an assumption of steady‐state time (T*) of 40 mins (Table 1). […] For voxel‐wise estimation of VT across the whole brain, we then used LGA (Figure 4A).
We also performed a self‐blocking scan for [^11C]CNY‐01, administering 0.5 mg kg^−1 of unlabeled CNY‐01 10 min before the radiotracer. The metabolism of the radiotracer in the blocking scan was similar to that of the baseline (Figure S6, Supporting Information). The radioactivity concentration was lower in arterial blood samples in the blocking scan compared to the baseline, while brain uptake was higher in the blocking scan (Figure S6, Supporting Information). […] The variation of the radiotracer plasma protein binding (fp) between baseline and blocking scan may explain our observation in a way similar to that of the previous study.^[ [46] ^] Nonetheless, due to this study's lack of fp data, the exact explanation for our observation remains to be determined further.
The PET/MR imaging protocol in non‐human primates (NHP) followed our previous work.^[ [55], [56] ^] A male rhesus macaque (8.55 kg) was anesthetized with an intramuscular injection of xylazine (0.5–2.0 mg kg^−1) and ketamine (10 mg kg^−1), followed by endotracheal intubation. V‐ and A‐lines were inserted, and anesthesia was maintained using isoflurane. [^11C] CNY‐01 was administered after antecubital catheterization, with an arterial line prepared for radiometabolite analysis. In the self‐blocking scan, the same animal (6.80 kg) was scanned with a 10‐min pre‐treatment of 0.5 mg kg^−1 unlabeled CNY‐01. PET/MR imaging data were acquired using a Siemens TIM‐Trio scanner (3T) equipped with a Siemens BrainPET insert module and an in‐house‐built 8‐channel head coil. The dynamic scan began, followed by administration of [^11C] CNY‐01 (5.1 mCi). The list mode data were reconstructed using the 3D ordinary Poisson expectation‐maximization algorithm (16 subsets and 6 iterations) with detector efficiency, decay, dead time, random coincidences, scatter, and attenuation corrections with gradually increasing time frams. All images were reconstructed into 153 slices with 256 × 256 pixels and 1.25‐mm isotropic voxel size. High‐resolution structural MRI scans were acquired by using a multi‐echo magnetization‐prepared rapid gradient echo (ME‐MPRAGE) sequence with parameters as follows: TR = 2400 ms; TE1/TE2/TE3/TE4 = 1.57/3.29/5.01/6.73 ms; inversion time = 1200 ms; flip angle = 9°; spatial resolution = 1 mm isotropic.
For macaque brain PET/MR imaging analysis, we applied the INIA19 Template^[ [57] ^] and NeuroMaps Atlas in accordance with our prior work.^[ [58] ^] In brief, reconstructed PET images were registered to the INIA19 Primate Brain Atlas^[ [57] ^] with the following processing steps^[ [59] ^]: The high‐resolution T1‐weighted MR image, co‐registered with the PET image, was first affine‐registered to the INIA19 atlas. By using the same transformation, dynamic PET data was registered to the atlas. A spatial smoothing with a 6‐mm FWHM Gaussian kernel was applied to PET images. Twenty ROIs determined in the INIA19 atlas were used to derive regional TACs. […]

[1] = NAc, 10-min pretreatment of unlabeled CNY-01 (0.5 mg kg^−1)
[2] = Occg, 10-min pretreatment of unlabeled CNY-01 (0.5 mg kg^−1)
[3] = Ofc, 10-min pretreatment of unlabeled CNY-01 (0.5 mg kg^−1)
[4] = PCC, 10-min pretreatment of unlabeled CNY-01 (0.5 mg kg^−1)
[5] = Putamen, 10-min pretreatment of unlabeled CNY-01 (0.5 mg kg^−1)
[6] = Sensory, 10-min pretreatment of unlabeled CNY-01 (0.5 mg kg^−1)
[7] = Thalamus, 10-min pretreatment of unlabeled CNY-01 (0.5 mg kg^−1)
[8] = VTA, 10-min pretreatment of unlabeled CNY-01 (0.5 mg kg^−1)
[9] = WB, 10-min pretreatment of unlabeled CNY-01 (0.5 mg kg^−1)
[10] = WM, 10-min pretreatment of unlabeled CNY-01 (0.5 mg kg^−1)

Cc1nc(-c2ccc(O[11CH3])cc2)nc(OCCCN2CCCCC2)c1Cl [[^11C]CNY-01]
VT, One tissue compartment model [1TCM] (Motor, baseline): 6.97 mL cm^−3 | VT, Two tissue compartment model [2TCM] (Motor, baseline): 8.88 mL cm^−3 | VT, Logan graphical method [T* = 40 min] [1]: 33.22 ml/cm^3 | VT, Two tissue compartment model [2TCM] [1]: 26.92 ml/cm^3 | VT, Logan graphical method [T* = 40 min] (NAc, baseline): 13.11 mL cm^−3 | VT, One tissue compartment model [1TCM] (NAc, baseline): 9.85 mL cm^−3 | VT, Two tissue compartment model [2TCM] (NAc, baseline): 11.85 mL cm^−3 | nonspecific binding in blockage experiments (NHP): high nonspecific binding | binding to target within the imaging timeframe (NHP, speculated from pharmacokinetic characteristics): predominantly irreversible | VT, Logan graphical method [T* = 40 min] [2]: 12.96 ml/cm^3 | VT, Two tissue compartment model [2TCM] [2]: 11.84 ml/cm^3 | VT, Logan graphical method [T* = 40 min] (Occg, baseline): 7.07 mL cm^−3 | VT, One tissue compartment model [1TCM] (Occg, baseline): 5.24 mL cm^−3 | VT, Two tissue compartment model [2TCM] (Occg, baseline): 6.28 mL cm^−3 | VT, Logan graphical method [T* = 40 min] [3]: 20.65 ml/cm^3 | VT, Two tissue compartment model [2TCM] [3]: 16.68 ml/cm^3 | VT, Logan graphical method [T* = 40 min] (Ofc, baseline): 9.72 mL cm^−3 | VT, One tissue compartment model [1TCM] (Ofc, baseline): 7.31 mL cm^−3 | VT, Two tissue compartment model [2TCM] (Ofc, baseline): 9.24 mL cm^−3 | VT, Logan graphical method [T* = 40 min] [4]: 27.31 ml/cm^3 | VT, Two tissue compartment model [2TCM] [4]: 23.16 ml/cm^3 | VT, Logan graphical method [T* = 40 min] (PCC, baseline): 12.38 mL cm^−3 | VT, One tissue compartment model [1TCM] (PCC, baseline): 9.29 mL cm^−3 | VT, Two tissue compartment model [2TCM] (PCC, baseline): 14.68 mL cm^−3 | VT, Logan graphical method [T* = 40 min] [5]: 33.81 ml/cm^3 | VT, Two tissue compartment model [2TCM] [5]: 27.99 ml/cm^3 | VT, Logan graphical method [T* = 40 min] (Putamen, baseline): 15.02 mL cm^−3 | VT, One tissue compartment model [1TCM] (Putamen, baseline): 11.56 mL cm^−3 | VT, Two tissue compartment model [2TCM] (Putamen, baseline): 15.75 mL cm^−3 | VT, Logan graphical method [T* = 40 min] [6]: 19.24 ml/cm^3 | VT, Two tissue compartment model [2TCM] [6]: 16.21 ml/cm^3 | VT, Logan graphical method [T* = 40 min] (Sensory, baseline): 8.75 mL cm^−3 | VT, One tissue compartment model [1TCM] (Sensory, baseline): 6.73 mL cm^−3 | VT, Two tissue compartment model [2TCM] (Sensory, baseline): 9.33 mL cm^−3 | VT, Logan graphical method [T* = 40 min] [7]: 30.88 ml/cm^3 | VT, Two tissue compartment model [2TCM] [7]: 25.02 ml/cm^3 | VT, Logan graphical method [T* = 40 min] (Thalamus, baseline): 15.50 mL cm^−3 | VT, One tissue compartment model [1TCM] (Thalamus, baseline): 10.94 mL cm^−3 | VT, Two tissue compartment model [2TCM] (Thalamus, baseline): 19.46 mL cm^−3 | VT, Logan graphical method [T* = 40 min] [8]: 26.74 ml/cm^3 | VT, Two tissue compartment model [2TCM] [8]: 19.47 ml/cm^3 | VT, Logan graphical method [T* = 40 min] (VTA, baseline): 12.11 mL cm^−3 | VT, One tissue compartment model [1TCM] (VTA, baseline): 8.25 mL cm^−3 | VT, Two tissue compartment model [2TCM] (VTA, baseline): 11.16 mL cm^−3 | VT, Two tissue compartment model [2TCM] (WB (whole brain), baseline): 10.35 mL cm^−3 | VT, Logan graphical method [T* = 40 min] [9]: 20.75 ml/cm^3 | VT, Two tissue compartment model [2TCM] [9]: 16.75 ml/cm^3 | VT, Logan graphical method [T* = 40 min] (WB, baseline): 9.82 mL cm^−3 | VT, One tissue compartment model [1TCM] (WB, baseline): 7.44 mL cm^−3 | VT, Two tissue compartment model [2TCM] (WM (white matter), baseline): 15.00 mL cm^−3 | VT, Logan graphical method [T* = 40 min] [10]: 25.98 ml/cm^3 | VT, Two tissue compartment model [2TCM] [10]: 21.29 ml/cm^3 | VT, Logan graphical method [T* = 40 min] (WM, baseline): 11.98 mL cm^−3 | VT, One tissue compartment model [1TCM] (WM, baseline): 9.00 mL cm^−3
